Experimental data as given in patent US11053243B2 (Merck Sharp & Dohme Corp., priority 2009, dated 2021).

test system: HCV genotype 1b replicon; test: HCV replicon assay, genotype 1b; type: cell-based, hepatitis C virus; details: Hepatitis C virus; genotype 1b replicon cells, 24 to 72 hours incubation, luciferase activity
Description: The HCV replicons and NS5A inhibitory activity of the present compounds may be tested using assays known in the art. HCV inhibitors, such as those described in the Examples herein have activities in genotype 1b, 2a and 1a replicon assays of from about 1 pM to about 1 μM. The assay is performed by incubating a replicon harboring cell-line in the presence of inhibitor for a set period of time and measuring the effect of the inhibitor on HCV replicon replication either directly by quantifying replicon RNA level, or indirectly by measuring enzymatic activity of a co-encoded reporter enzyme such as luciferase or β-lactamase. By performing a series of such measurements at different inhibitor concentrations, the effective inhibitory concentration of the inhibitor (EC50 or EC90) is determined. See Jan M. Vrolijk et al., A replicons-based bioassay for the measurement of interferons in patients with chronic hepatitis C, 110 J. VIROLOGICAL METHODS 201 (2003). Such assays may also be run in an automated format for high through-put screening. See Paul Zuck et al., A cell-based β-lactamase reporter gene assay for the identification of inhibitors of hepatitis C virus replication, 334 ANALYTICAL BIOCHEMISTRY 344 (2004).
Measurement of inhibition by compounds was performed using the HCV replicon system. Several different replicons encoding different HCV genotypes or mutations were used. In addition, potency measurements were made using different formats of the replicon assay, including different ways of measurements and different plating formats. See Jan M. Vrolijk et al., A replicons-based bioassay for the measurement of interferons in patients with chronic hepatitis C, 110 J. VIROLOGICAL METHODS 201 (2003); Steven S. Carroll et al., Inhibition of Hepatitis C Virus RNA Replication by 2′-Modified Nucleoside Analogs, 278(14) J. BIOLOGICAL CHEMISTRY 11979 (2003). However, the underlying principles are common to all of these determinations, and are outlined below.
Stable neomycin phosphotransferase encoding replicon-harboring cell lines were used, so all cell lines were maintained under G418 selection prior to the assay. In some cases, the cell lines encoded a luciferase:Neor fusion and could be assayed either directly by determination of RNA copy number, or indirectly through measurement of the luciferase activity.
To initiate an assay, replicon cells were plated in the presence of a dilution series of test compound in the absence of G418. Typically, the assays were performed in a 96-well plate format for manual operation, or a 384-well plate in an automated assay. Replicon cells and compound were incubated for 24 to 72 hours. At the end of the assay, cells are washed free of media and compound and then lysed. Luciferase activity was measured using a conventional luciferase assay. EC50 determinations were calculated as a percent of a DMSO control by fitting the data to a four parameter fit function.
The activity table below provides representative data illustrating observed activity against genotype 1b.

| Structure (SMILES) | EC50 |
| --- | --- |
| CC(=O)Nc1ccc(-c2cc3cc(NC(=O)[C@@H]4CCCN4C(=O)[C@H](NC(=O)OC(C)(C)C)c4ccccc4)ccc3o2)cc1 [Example 19, N-{2-[4-(acetylamino)phenyl]-1-benzofuran-5-yl}-1-{(2R)-2-[(tert-butoxycarbonyl)amino]-2-phenylacetyl}-L-prolinamide] | 25 nM |
| O=C(Nc1ccc2[nH]c(-c3cc4cc(NC(=O)[C@@H]5CCCN5C(=O)Cc5ccccc5)ccc4[nH]3)cc2c1)[C@@H]1CCCN1C(=O)Cc1ccccc1 [Example 39, (2S,2′S)—N,N′,1H,1′H-2,2′-biindole-5,5′-diylbis[1-(phenylacetyl)pyrrolidine-2-carboxamide]] | 0.24 nM |
| CCN(CC)[C@@H](C(=O)N1CCC[C@H]1c1ncc(-c2ccc(-c3cc4cc(-c5cnc([C@@H]6CCCN6C(=O)[C@@H](c6ccccc6)N(CC)CC)[nH]5)ccc4o3)cc2)[nH]1)c1ccccc1 [Example 193, (2R)-2-(diethylamino)-1-[(2S)-2-(5-{4-[5-(2-{(2S)-1-[(2R)-2-(diethylamino)-2-phenylacetyl]pyrrolidin-2-yl}-1H-imidazol-5-yl)-1-benzofuran-2-yl]phenyl}-1H-imidazol-2-yl)pyrrolidin-1-yl]-2-phenylethanone] | 0.05 nM |
| CC(C)(C)OC(=O)N[C@@H](C(=O)N1CCC[C@H]1C(=O)Nc1ccc2[nH]c(-c3ccc(-c4cnc([C@@H]5CCCN5C(=O)OCc5ccccc5)[nH]4)cc3)cc2c1)c1ccccc1 [Example 100, benzyl (2S)-2-[5-(4-{5-[(1-{(2R)-2-[(tert-butoxycarbonyl)amino]-2-phenylacetyl}-L-prolyl)amino]-1H-indol-2-yl}phenyl)-1H-imidazol-2-yl]pyrrolidine-1-carboxylate] | 0.031 nM |
| COC(=O)N[C@H](C(=O)N1CCC[C@H]1c1ncc(-c2ccc3c(c2)OCn2c-3c(F)c3cc(-c4cnc([C@@H]5CCCN5C(=O)[C@@H](NC(=O)OC)C(C)C)[nH]4)ccc32)[nH]1)C(C)C [Example 189b] | 0.001 nM |
| CC(C)(C)OC(=O)N[C@H](C(=O)N1CCC[C@H]1C(=O)Nc1ccc(-c2[nH]c3ccc(NC(=O)[C@@H]4CCCN4C(=O)[C@@H](NC(=O)OC(C)(C)C)c4ccccc4)cc3c2F)cc1)c1ccccc1 [Example 130, tert-butyl {(1S)-2-[(2S)-2-({4-[5-({[(2S)-1-{(2S)-2-[(tert-butoxycarbonyl)amino]-2-phenylacetyl}pyrrolidin-2-yl]carbonyl}amino)-3-fluoro-1H-indol-2-yl]phenyl}carbamoyl)pyrrolidin-1-yl]-2-oxo-1-phenylethyl}carbamate] | 0.05 nM |
| CN(C)[C@@H](C(=O)N1CCC[C@H]1C(=O)Nc1ccc2c(c1)CCc1c-2[nH]c2ccc(NC(=O)[C@@H]3CCCN3C(=O)[C@@H](c3ccccc3)N(C)C)cc12)c1ccccc1 [Example 94, (2S,2′S)-N,N′-6,11-dihydro-5H-benzo[a]carbazole-3,8-diylbis{1-[(2R)-2-(dimethylamino)-2-phenylacetyl]pyrrolidine-2-carboxamide}] | 0.006 nM |
| O=C(Nc1ccc(-c2cc3cc(NC(=O)[C@@H]4CCCN4C(=O)[C@@H](c4ccccc4)N4CCCCC4)ccc3[nH]2)cc1)[C@@H]1CCCN1C(=O)[C@@H](c1ccccc1)N1CCCCC1 [Example 60, (2S)-1-[(2R)-2phenyl-2-(piperidin-1-yl)acetyl]-N-(4-{5-[({(2S)-1-[(2R)-2-phenyl-2-(piperidin-1-yl)acetyl]pyrrolidin-2-yl}carbonyl)amino]-1H-indol-2-yl}phenyl)pyrrolidine-2-carboxamide] | 0.13 nM |
| O=C(Nc1ccc(-c2cc3cc(NC(=O)[C@@H]4CCCN4C(=O)[C@@H](c4ccccc4)N4CCCC4)ccc3[nH]2)cc1)[C@@H]1CCCN1C(=O)[C@@H](c1ccccc1)N1CCCC1 [Example 45, (2S)-1-[(2R)-2-phenyl-2-(pyrrolidin-1-yl)acetyl]-N-(4-{5-[({(2S)-1-[(2R)-2-phenyl-2-(pyrrolidin-1-yl)acetyl]pyrrolidin-2-yl}carbonyl)amino]-1H-indol-2-yl}phenyl) pyrrolidine-2-carboxamide] | 0.02 nM |
| CC(C)(C)OC(=O)N[C@@H](C(=O)N1CCC[C@H]1C(=O)Nc1ccc(-c2[nH]c3ccc(NC(=O)[C@@H]4CCCN4C(=O)[C@H](NC(=O)OC(C)(C)C)c4ccccc4)cc3c2C(=O)NC2CC2)cc1)c1ccccc1 [Example 158, tert-butyl {(1R)-2-[(2S)-2-({4-[5-({[(2S)-1-{(2R)-2-[(tert-butoxycarbonyl)amino]-2-phenylacetyl}pyrrolidin-2-yl]carbonyl}amino)-3-(cyclopropylcarbamoyl)-1H-indol-2-yl]phenyl}carbamoyl)pyrrolidin-1-yl]-2-oxo-1-phenylethyl}carbamate] | 0.5 nM |
| CC(=O)N1CCC[C@H]1C(=O)Nc1ccc(-c2[nH]c3ccc(NC(=O)[C@@H]4CCCN4C(=O)[C@H](NC(=O)OC(C)(C)C)c4ccccc4)cc3c2F)cc1 [Example 137, tert-butyl {(1R)-2-[(2S)-2-({2-[4-({[(2S)-1-acetylpyrrolidin-2-yl]carbonyl}amino)phenyl]-3-fluoro-1H-indol-5-yl}carbamoyl)pyrrolidin-1-yl]-2-oxo-1-phenylethyl}carbamate] | 0.009 nM |
| CN(C)[C@@H](C(=O)N1CCC[C@H]1c1ncc(-c2ccc(-c3cc4cc(NC(=O)[C@@H]5CCCN5C(=O)[C@H](NC(=O)OC(C)(C)C)c5ccccc5)ccc4[nH]3)cc2)[nH]1)c1ccccc1 [Example 107, tert-butyl {(1R)-2-[(2S)-2-({2-[4-(2-{(2S)-1-[(2R)-2-(dimethylamino)-2-phenylacetyl]pyrrolidin-2-yl}-1H-imidazol-5-yl)phenyl]-1H-indol-5-yl}carbamoyl)pyrrolidin-1-yl]-2-oxo-1-phenylethyl}carbamate] | 0.04 nM |
| CC(C)(C)OC(=O)N[C@@H](C(=O)N1CCCC1C(=O)Nc1ccc2[nH]c(-c3cc4cc(NC(=O)[C@@H]5CCCN5C(=O)[C@H](NC(=O)OC(C)(C)C)c5ccccc5)ccc4[nH]3)cc2c1)c1ccccc1 (stereo partly drawn) [Example 40] | 0.026 nM |
| CC(C)(C)OC(=O)N[C@@H](C(=O)N1CCC[C@H]1C(=O)Nc1ccc2[nH]c(-c3ccc(-c4cnc([C@@H]5CCCN5C(=O)[C@H](NC(=O)OC(C)(C)C)c5ccccc5)[nH]4)cc3)cc2c1)c1ccccc1 [Example 99, tert-butyl {(1R)-2-[(2S)-2-(5-{4-[5-({[(2S)-1-{(2R)-2-[(tert-butoxycarbonyl)amino]-2-phenylacetyl}pyrrolidin-2-yl]carbonyl}amino)-1H-indol-2-yl]phenyl}-1H-imidazol-2-yl)pyrrolidin-1-yl]-2-oxo-1-phenylethyl}carbamate] | 0.038 nM |
| COC(=O)N[C@@H](C(=O)N1CCC[C@H]1c1ncc(-c2ccc(-c3nc4cc(-c5cnc([C@@H]6CCCN6C(=O)[C@H](NC(=O)OC)c6ccccc6)[nH]5)ccc4o3)cc2)[nH]1)c1ccccc1 [Example 213, Methyl {(1R)-2-[(2S)-2-{5-[4-(5-{2-[(2S)-1-{(2R)-2-[(methoxycarbonyl)amino]-2-phenylacetyl}pyrrolidin-2-yl]-1H-imidazol-5-yl}-1,3-benzoxazol-2-yl)phenyl]-1H-imidazol-2-yl}pyrrolidin-1-yl]-2-oxo-1-phenylethyl}carbamate] | 0.009 nM |
| Cc1cccc(-c2c(-c3ccc(NC(=O)[C@@H]4CCCN4C(=O)[C@H](NC(=O)OC(C)(C)C)c4ccccc4)cc3)[nH]c3ccc(NC(=O)[C@@H]4CCCN4C(=O)[C@H](NC(=O)OC(C)(C)C)c4ccccc4)cc23)c1 [Example 169, tert-butyl {(1R)-2-[(2S)-2-({4-[5-({[(2S)-1-{(2R)-2-[(tert-butoxycarbonyl)amino]-2-phenylacetyl}pyrrolidin-2-yl]carbonyl}amino)-3-(3-methylphenyl)-1H-indol-2-yl]phenyl}carbamoyl)pyrrolidin-1-yl]-2-oxo-1-phenylethyl}carbamate] | 0.004 nM |

same assay, conditions: genotype 1b replicon cells, 24 to 72 hours incubation, luciferase activity

| Structure (SMILES) | EC50 |
| --- | --- |
| CN(C)[C@@H](C(=O)N1CCC[C@H]1C(=O)Nc1ccc2[nH]c(-c3ccc(NC(=O)[C@@H]4CCCN4C(=O)[C@H]4CCCO4)cc3)cc2c1)c1ccccc1 [Example 72] | 0.17 nM |
| CN(C)[C@@H](C(=O)N1CCC[C@H]1C(=O)Nc1ccc2[nH]c(-c3nc4cc(NC(=O)[C@@H]5CCCN5C(=O)[C@@H](c5ccccc5)N(C)C)ccc4o3)cc2c1)c1ccccc1 [Example 190, (2S)-1-[(2R)-2-(dimethylamino)-2-phenylacetyl]-N-(2-{5-[({(2S)-1-[(2R)-2-(dimethylamino)-2-phenylacetyl]pyrrolidin-2-yl}carbonyl)amino]-1,3-benzoxazol-2-yl}-1H-indol-5-yl)pyrrolidine-2-carboxamide] | 0.067 nM |
